Experimental data reported in patent US20260207670A1, “STABILIZED BLOOD DERIVED COMPOSITION USING ANTIFIBRINOLYTIC AGENTS” (priority 2022, published 2026).

Tests used:
[1] = test system: rabbit model of osteoarthritis; assay: Arthrosis rabbit model: radiological, macroscopic and histological scores; assay type: in vivo
Experimental: Rabbits showing characteristic signs of osteoarthritis (as described in Guingamp et al., 1997; confirmed with the sacrifice of two rabbits on day 15 after induction of osteoarthritis and histology), were injected with a treatment solution as described below. The rabbits were sacrificed after 75 days and radiological observation, macroscopic observation, histological observation of the cartilage, histological observation of the synovium, histological observation of the menisci were carried out.
The rabbits were treated with either: • 1. PRP alone; or • 2. […] Physiological serum (saline solution, a placebo)
The limbs were examined radiologically by two orthogonal views (anteroposterior and medio-lateral) performed using a SAMSUNG XGO® model GU60 digital radiography system (Samsung® Electronics Co, Ltd; Korè) according to radiological constants following: Voltage: 52 kV; Intensity: 100 mA; and Load: 5 mAs. The radiographs were examined blindly by two observers. The degenerative changes are similar between the two subgroups of group control (physiological serum and TXA alone). […] This is explained by the fact that tranexamic acid prevents the destruction of the fibrin network within the joint space and allows a prolonged biological action.

SOX9 gene = assay: RT-PCR of SOX9 gene expression in the rabbit osteoarthritis model; assay type: in vivo; details: p=0.36 (TXA)
From the text: (§1) The measurement of the expression of the genes responsible for the cell differentiation is found to be important in assessing the potential regenerative of the therapy tested. The process of tissue repair involves the overexpression of the genes that are involved in the form of messenger RNA (mRNA) which will be essential for synthesis of proteins necessary for wound healing and differentiation. Therefore, quantification of the mRNA of such a gene will reflect the efficiency and the intensity of tissue repair. Based on this principle, in the rabbit osteoarthritis model of Example 3, RT-PCR was carried out in order to quantify two genes that are correlated to repair and differentiation hyaline cartilage: the COL II gene coding for the synthesis of collagen II; and the SOX9 gene coding for the differentiation mechanisms chondrocyte.

COL II gene = assay: RT-PCR of COL II gene expression in the rabbit osteoarthritis model; assay type: in vivo; details: p=0.12 (TXA), p=3.9*10-8 (PRP alone), p=2.1*10-6 (PRP+TXA)
From the text: as §1

PRP fibrin clot = assay: Speed of PRP fibrin clot disintegration (PRP gel disc diameter)

SMILES: NC[C@H]1CC[C@H](C(=O)O)CC1 [TXA, tranexamic acid]
- synovial score (osteoarthritic synoviopathy) compared to placebo ([1]; after 75 days, p=0.58 (TXA)): no statistically significant differences
- meniscal histological score compared to placebo ([1]; after 75 days, p=0.6 (TXA), p=0.07 (PRP alone), p=2.2*10-6 (PRP+TXA)): no statistically significant differences
- radiological score compared with physiological serum ([1]; rabbits sacrificed after 75 days, p=0.092 (PRP alone)): similar
- expression of SOX9 gene (RQ) compared to placebo (SOX9 gene): No significant difference
- expression of COLII (RQ) compared to placebo (COL II gene): No significant difference
- effect on PRP gel disc breakdown, 20 mg/mL compared with 10 mg/mL (PRP fibrin clot; 20 mg/mL tranexamic acid vs 10 mg/mL (Example 1)): even more beneficial effect
- rate of PRP gel disc breakdown (PRP fibrin clot; PRP gel discs with TXA 10 or 20 mg/ml vs pure PRP gel, diameter measured weekly over 21 days, physiological conditions): significantly reduced
